Results on eleven molecules are retold here after patent US11912710B2 (UPPTHERA, INC., priority 2021, dated 2024).

Each structure is given as a SMILES string.

As a reminder, the IC50 is the point on the concentration scale where inhibition reaches its midpoint.

Format in all cases: cell-based
For one experiment, the target named is T1, PLK1 (Homo sapiens, UniProt P53350).
T1 construct: endogenous in cells; host or cells: HeLa LgBit (Plk1-HiBit KI): HeLa cells stably expressing LgBit, with HiBit knocked into the endogenous Plk1 locus by CRISPR/Cas9
Put plainly: Luciferase assay for PLK1 in HeLa LgBit (Plk1-HiBit KI) cell line. The settings on record: 300 nM compound, luminescence after 9 hours, read-out: Activity: ratio of the luminescense value of compound treatment group to DMSO treatment group. As to the method:
2. Luciferase Assay for PLK1
(1) Preparation and Culture of HeLa LgBit (Plk1-HiBit KI) Cell Line
A HeLa cell line in which the LgBit vector was transfected and expressed stably was prepared. Then, after constructing gRNA and donor to express the HiBit amino acid sequence behind the C-terminal of the Plk1 gene, which was inherent in the cell, it was inserted into the cell together with a vector capable of expressing CRISPR/Cas9. Only the cells in which the insertion was completed and knock-in had progressed were selected, sub-cultured and used.
(2) Treatment of Compounds of the Present Invention and Method of Luciferase Assay
In the case of HeLa LgBit (Plk1-HiBit KI), the compounds were treated after being released after thymidine block, and the process was as follows. Thymidine (Sigma-Aldrich Cat. No. T9250-5G) was completely dissolved in DW and used in the experiment. For thymidine block, the products were treated with 2 mM of thymidine and then incubated for 24 hours. For release and chemical treatment, the medium was suctioned and washed with 1×PBS. TrypLE™ was added and incubated in 37° C. CO2 incubator for 5 min. Cells neutralized by adding complete media were counted through a counter. For each well of a 96-well culture plate (SPL), 3.3×10^4 cells and a total medium volume of 150 μL were seeded and incubated in a CO2 incubator.
Each cell line was incubated in a CO2 incubator for 18 hours, and Endurazine was added to each well to make up 4% of the total volume. After adding the compound of the present invention in a 96-well white plate (SPL) to a concentration of 300 nM, the wavelength of the plate reader (BMG Labtech, CLARIOstar Plus) was set to […], and then the luminescence was tracked in real time.
In Table 2, Activity represents the ratio of the luminescense value of each Exemplary Compound treatment group to DMSO treatment group (+++: <0.3, ++<0.6, +<0.7).
(With HiBiT, luminescence reflects the tagged protein that the partner subunit can reach.)

In a further experiment the test system is NCI-H526 cell line. Kind of experiment: Cell viability assay for H526 cell line. The settings on record: Homo sapiens, NCI-H526, 120 h; H526 cells, 5 days, EZ-Cytox, 3000 nM to 0.46 nM. As to the method:
3. Cell Viability Assay for H526 Cell Line
(1) Culture of NCI-H526 Cell Line
(2) Treatment of Compounds of the Present Invention and Method of Cell Viability Assay
After treating the compound to each well to make the total volume of 200 μL, it was cultured in a CO2 incubator (Thermo Fisher Science, Cat. No. 4111) for 5 days.
The absorbance of the completely cultured sample was measured by setting the wavelength of a plate reader (BMG Labtech, CLARIOstar Plus) to […], and was measured after shaking for 3 minutes in a plate reader before measurement.
In Table 3, Activity represents IC50 value of each Exemplary Compound treatment group to H526 cell line (A: <30 nM, B: <50 nM, C: <100 nM, D: <200 nM, E: <400 nM).

For the next experiment, the system named is MRC-5 cell line. Kind of experiment: Cell viability assay (cytotoxicity) for MRC-5 cell line. The settings on record: Homo sapiens, MRC5, 120 h; MRC-5 normal cell line, 5 days, EZ-Cytox, 10000 nM to 1.52 nM; read-out: Activity: IC50 value to MRC-5 cell line (Exemplary Compounds). The method, then: 4. Cell Viability Assay for MRC-5 Cell Line
(1) Culture of MRC-5 Cell Line
Passage of cultured cells was maintained within P15.
(2) Treatment of Compounds of the Present Invention
Then, it was cultured in 37° C.
(3) Cytotoxicity Experiment
CO2 incubator for 4 hours.
Cell Viability Assay for MRC-5 cell line

T1 sequence (P53350 whole entry): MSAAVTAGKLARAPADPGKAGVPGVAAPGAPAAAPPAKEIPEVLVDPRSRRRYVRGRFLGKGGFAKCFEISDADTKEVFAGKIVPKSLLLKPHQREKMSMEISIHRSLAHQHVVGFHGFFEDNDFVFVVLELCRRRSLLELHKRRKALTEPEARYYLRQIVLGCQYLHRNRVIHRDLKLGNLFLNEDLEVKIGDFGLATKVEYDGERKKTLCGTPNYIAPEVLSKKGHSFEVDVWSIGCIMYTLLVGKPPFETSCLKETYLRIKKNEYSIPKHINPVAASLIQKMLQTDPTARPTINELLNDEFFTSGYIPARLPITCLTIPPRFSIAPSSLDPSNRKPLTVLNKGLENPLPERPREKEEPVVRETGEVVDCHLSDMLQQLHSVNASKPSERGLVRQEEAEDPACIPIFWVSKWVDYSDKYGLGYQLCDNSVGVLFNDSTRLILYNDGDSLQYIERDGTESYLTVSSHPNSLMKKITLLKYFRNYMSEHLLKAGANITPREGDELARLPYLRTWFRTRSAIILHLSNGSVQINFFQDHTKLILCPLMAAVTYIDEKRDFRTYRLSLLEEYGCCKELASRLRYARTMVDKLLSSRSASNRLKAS

On to `COc1cc(C(=O)NC2CC3(CCN(CC4CCN(c5ccc(C6CCC(=O)NC6=O)cc5)CC4)CC3)C2)ccc1Nc1ncc2c(n1)N(C1CCCC1)CC(F)(F)C(=O)N2C` (stereo not drawn) [Compound 16, 4-((9-cyclopentyl-7,7-difluoro-5-methyl-6-oxo-6,7,8,9-tetrahydro-5H-pyrimido[4,5-b][1,4]diazepin-2-yl)amino)-N-(7-((1-(4-(2,6-dioxopiperidin-3-yl)phenyl)piperidin-4-yl)methyl)-7-azaspiro[3.5]nonan-2-yl)-3-methoxybenzamide], for which the remaining activity at 0.3 µM on PLK1 is less than 30%. The IC50 is less than 0.03 µM in the experiment on NCI-H526 cell line and 9.12 µM with MRC-5 cell line.
For the molecule `COc1cc(C(=O)NN2CCC([C@@H](C)CN3CCN(c4ccc(C5CCC(=O)NC5=O)cc4F)CC3)CC2)ccc1Nc1ncc2c(n1)N(C1CCCC1)CC(F)(F)C(=O)N2C` (stereo partly drawn) [Compound 19, 4-((9-cyclopentyl-7,7-difluoro-5-methyl-6-oxo-6,7,8,9-tetrahydro-5H-pyrimido[4,5-b][1,4]diazepin-2-yl)amino)-N-(4-((2R)-1-(4-(4-(2,6-dioxopiperidin-3-yl)-2-fluorophenyl)piperazin-1-yl)propan-2-yl)piperidin-1-yl)-3-methoxybenzamide], the remaining activity at 0.3 µM at PLK1 was less than 30%. The half-maximal inhibitory concentration (IC50) in the experiment with NCI-H526 cell line is less than 0.03 µM; in the experiment with MRC-5 cell line, greater than 10 µM.
The like results for `COc1cc(C(=O)NN2CCC([C@H](C)CN3CCN(c4ccc(C5CCC(=O)NC5=O)cc4F)CC3)CC2)ccc1Nc1ncc2c(n1)N(C1CCCC1)CC(F)(F)C(=O)N2C` (stereo partly drawn) [Compound 20, 4-((9-cyclopentyl-7,7-difluoro-5-methyl-6-oxo-6,7,8,9-tetrahydro-5H-pyrimido[4,5-b][1,4]diazepin-2-yl)amino)-N-(4-((2S)-1-(4-(4-(2,6-dioxopiperidin-3-yl)-2-fluorophenyl)piperazin-1-yl)propan-2-yl)piperidin-1-yl)-3-methoxybenzamide] were, in that order, less than 30%, less than 0.05 µM and greater than 10 µM.
The matching figures for `COc1cc(C(=O)NC2CCN(CC3CC4(CCN(c5ccc(C6CCC(=O)NC6=O)cc5F)CC4)C3)CC2)ccc1Nc1ncc2c(n1)N(C1CCCC1)CC(F)(F)C(=O)N2C` (stereo not drawn) [Compound 21, 4-((9-cyclopentyl-7,7-difluoro-5-methyl-6-oxo-6,7,8,9-tetrahydro-5H-pyrimido[4,5-b][1,4]diazepin-2-yl)amino)-N-(1-((7-(4-(2,6-dioxopiperidin-3-yl)-2-fluorophenyl)-7-azaspiro[3.5]nonan-2-yl)methyl)piperidin-4-yl)-3-methoxybenzamide]: less than 30%, less than 0.05 µM and greater than 10 µM.
For `COc1cc(C(=O)NCC2CCN(CC3CCN(c4ccc(C5CCC(=O)NC5=O)cc4F)CC3)CC2)ccc1Nc1ncc2c(n1)N(C1CCCC1)CC(F)(F)C(=O)N2C` (stereo not drawn) [Compound 22, 4-((9-cyclopentyl-7,7-difluoro-5-methyl-6-oxo-6,7,8,9-tetrahydro-5H-pyrimido[4,5-b][1,4]diazepin-2-yl)amino)-N-((1-((1-(4-(2,6-dioxopiperidin-3-yl)-2-fluorophenyl)piperidin-4-yl)methyl)piperidin-4-yl)methyl)-3-methoxybenzamide], the remaining activity at 0.3 µM at PLK1 is less than 30%. Besides, the IC50 with NCI-H526 cell line was less than 0.03 µM; in the experiment on MRC-5 cell line it was greater than 10 µM.
The matching figures for `COc1cc(C(=O)NCC2CC23CCN(CC2CCN(c4ccc(C5CCC(=O)NC5=O)cc4F)CC2)CC3)ccc1Nc1ncc2c(n1)N(C1CCCC1)CC(F)(F)C(=O)N2C` (stereo not drawn) [Compound 24, 4-((9-cyclopentyl-7,7-difluoro-5-methyl-6-oxo-6,7,8,9-tetrahydro-5H-pyrimido[4,5-b][1,4]diazepin-2-yl)amino)-N-((6-((1-(4-(2,6-dioxopiperidin-3-yl)-2-fluorophenyl)piperidin-4-yl)methyl)-6-azaspiro[2.5]octan-1-yl)methyl)-3-methoxybenzamide]: less than 30%, less than 0.05 µM and greater than 10 µM.
For the molecule `COc1cc(C(=O)NC2CC3(CCN(CC4CCN(c5ccc(C6CCC(=O)NC6=O)cc5C)CC4)CC3)C2)ccc1Nc1ncc2c(n1)N(C1CCCC1)CC(F)(F)C(=O)N2C` (stereo not drawn) [Compound 25, 4-((9-cyclopentyl-7,7-difluoro-5-methyl-6-oxo-6,7,8,9-tetrahydro-5H-pyrimido[4,5-b][1,4]diazepin-2-yl)amino)-N-(7-((1-(4-(2,6-dioxopiperidin-3-yl)-2-methylphenyl)piperidin-4-yl)methyl)-7-azaspiro[3.5]nonan-2-yl)-3-methoxybenzamide], the remaining activity at 0.3 µM on PLK1 is less than 30%. For the same molecule, the IC50 in the experiment with NCI-H526 cell line is less than 0.03 µM; in the experiment with MRC-5 cell line, greater than 10 µM.
The matching figures for `COc1cc(C(=O)NC2CC3(CCN(CC4(C)CCN(c5ccc(C6CCC(=O)NC6=O)cc5F)CC4)CC3)C2)ccc1Nc1ncc2c(n1)N(C1CCCC1)CC(F)(F)C(=O)N2C` (stereo not drawn) [Compound 26, 4-((9-cyclopentyl-7,7-difluoro-5-methyl-6-oxo-6,7,8,9-tetrahydro-5H-pyrimido[4,5-b][1,4]diazepin-2-yl)amino)-N-(7-((1-(4-(2,6-dioxopiperidin-3-yl)-2-fluorophenyl)-4-methylpiperidin-4-yl)methyl)-7-azaspiro[3.5]nonan-2-yl)-3-methoxybenzamide]: less than 60%, less than 0.05 µM and 5.59 µM.
The matching figures for `COc1cc(C(=O)NC2CC3(CCN(CC4CCN(c5ccc(C6CCC(=O)NC6=O)cc5F)CC4C)CC3)C2)ccc1Nc1ncc2c(n1)N(C1CCCC1)CC(F)(F)C(=O)N2C` (stereo not drawn) [Compound 27, 4-((9-cyclopentyl-7,7-difluoro-5-methyl-6-oxo-6,7,8,9-tetrahydro-5H-pyrimido[4,5-b][1,4]diazepin-2-yl)amino)-N-(7-((1-(4-(2,6-dioxopiperidin-3-yl)-2-fluorophenyl)-3-methylpiperidin-4-yl)methyl)-7-azaspiro[3.5]nonan-2-yl)-3-methoxybenzamide]: less than 60%, less than 0.03 µM and greater than 10 µM.
The like results for `COc1cc(C(=O)NC2CCN(C(=O)CCN3CCN(c4ccc(N5CCC(=O)NC5=O)cc4)CC3)CC2)ccc1Nc1ncc2c(n1)N(C1CCCC1)CC(F)(F)C(=O)N2C` [Compound 32, 4-((9-cyclopentyl-7,7-difluoro-5-methyl-6-oxo-6,7,8,9-tetrahydro-5H-pyrimido[4,5-b][1,4]diazepin-2-yl)amino)-N-(1-(3-(4-(4-(2,4-dioxotetrahydropyrimidin-1(2H)-yl)phenyl)piperazin-1-yl)propanoyl)piperidin-4-yl)-3-methoxybenzamide] were, in that order, less than 60%, less than 0.03 µM and greater than 10 µM.
In the case of `COc1cc(C(=O)NC2CC3(CCN(CC4CCN(c5ccc(N6CCC(=O)NC6=O)cc5)CC4)CC3)C2)ccc1Nc1ncc2c(n1)N(C1CCCC1)CC(F)(F)C(=O)N2C` [Compound 33, 4-((9-cyclopentyl-7,7-difluoro-5-methyl-6-oxo-6,7,8,9-tetrahydro-5H-pyrimido[4,5-b][1,4]diazepin-2-yl)amino)-N-(7-((1-(4-(2,4-dioxotetrahydropyrimidin-1(2H)-yl)phenyl)piperidin-4-yl)methyl)-7-azaspiro[3.5]nonan-2-yl)-3-methoxybenzamide], the remaining activity at 0.3 µM at PLK1 is less than 70%. Further, the values for the IC50 in the experiment with NCI-H526 cell line and with MRC-5 cell line were less than 0.03 µM and greater than 10 µM, respectively.
